Experiments:
[1] = at 79° F.; cited from earlier work
[2] = solubility in water of anti-inflammatory agents, alone and in formulations comprising MSM; type: physicochemical
Excerpt: The increases in solubility in water of certain representative anti-inflammatory agents in formulations comprising MSM (about 5.4% w/w; range between 0.1 wt. % to about 15 wt. %, typically around 5%) are as follows: […]

[3] = in formulations comprising MSM (about 5.4% w/w; range 0.1 wt. % to about 15 wt. %)
[4] = without MSM (starting value of the increase)

| SMILES | water solubility [1] [% w/v] | solubility in water [2, 3] | solubility in water [2, 4] |
| --- | --- | --- | --- |
| CS(C)(=O)=O [MSM, methylsulfonylmethane] | 34 |  |  |
| COC(=O)c1ccccc1O [Methyl salicylate, methyl salicylate] |  | 0.013 mg per ml of water | 0.00065 mg per ml of water |
| C[C@@H]1C[C@H]2[C@@H]3CCC4=CC(=O)C=C[C@]4(C)[C@@]3(F)[C@@H](O)C[C@]2(C)[C@@]1(O)C(=O)CO [Dexamethsone, dexamethasone] |  | ~250 mg per ml of water | insoluble |
| O=C(O)Cc1ccccc1Nc1c(Cl)cccc1Cl [Diclofenac, diclofenac] |  | 50 mg per ml of water | 0.004 mg per ml of water |
| CC(C)Cc1ccc(C(C)C(=O)O)cc1 (stereo not drawn) [Ibuprofen, ibuprofen] |  | ~150 mg per ml of water | insoluble |

From US20240382597A1, “FORMULATIONS OF ANTI-INFLAMMATORY AGENTS COMPRISING MSM WITH ENHANCED SOLUBILITY IN WATER” (LIVIONEX, Inc., priority 2021, published 2024)
